Data from US8293774B2, “Optically active (R)-aryloxypropionic acid amides and herbicidal composition comprising same” (Kyung Nong Corporation, priority 2007, dated 2012).

Assays:
[1] = tested on: GLXMA (Glycine max(L.) MERR, soy bean); assay: Weed control test, foliage treatment (Test Example 1, Table 7); settings: in vivo
[2] = tested on: TRZAW (Tritium aestivum L., wheat); assay: as above; settings: in vivo
rice (Nampyung rice) = assay: Foliage treatment with emulsions, dry rice field conditions, harmful effect on rice (Test Example 2, Table 9); assay type: in vivo; settings: 6~6.5-leaf stage, 150 g a.i./ha, emulsion; for Harmful effect, 20 days: 20 days after foliage treatment; for Harmful effect, 30 days: 30 days after foliage treatment
Source text: (§1) Seeds of rice (Nampyung rice) and barnyard grasses (Echinochloa oryzicola and Echinochloa crus-galli var. crus-galli) were placed in sandy loam of pots, covered with soil, and grown in the dry rice field conditions.

Echinochloa oryzicola = assay: Foliage treatment with emulsions, dry rice field conditions (Test Example 2, Table 9); assay type: in vivo; settings: 150 g a.i./ha; emulsion of Formulation Example 3; division stage 1~2; 20 days after foliage treatment
Source text: as §1
(§2) Rice (6˜6.5-leaf stage, plant height 33.2 cm) and barnyard grasses (Echinochloa oryzicola: division stage 1˜2, plant height 38.0 cm, Echinochloa crus-galli var. crus-galli: division stage 1˜2, plant height 44.1 cm) were subjected to a foliage treatment with emulsions prepared according to Formulation Example 3 by using compounds of Examples 1, 5 and 13 (purity: 99% or more), wherein the emulsions were sprayed to the plants at a dosage of the active compound of 150 g/ha.
(§3) The herbicidal effect on the barnyard grasses and harmful effect on the rice of the test compounds at 20 days and 30 days after the foliage treatment were visually evaluated as in Test Example 1 in comparison with the untreated control, and the results are shown in Table 9.

[3] = tested on: Echinochloa crus-galli var. crus-galli; assay: as above; assay type: in vivo; settings: 150 g a.i./ha; emulsion of Formulation Example 3; division stage 1~2; 20 days after foliage treatment
Source text: as §1, §2, §3

[4] = tested on: SETVIR (Setaria viridis (L.) Beauv, green foxtail); assay: Weed control test, foliage treatment (Test Example 1, Table 7); assay type: in vivo; settings: Setaria viridis, foliar, read-out: Plant damage (herbicidal activity), visually evaluated, SETVIR; for pest or weed control at 25 g/ha: 0.025 kg/ha; for pest or weed control at 100 g/ha: 0.1 kg/ha; for pest or weed control at 200 g/ha: 0.2 kg/ha
In short: (§4)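 Seeds sown in sandy loam and grown in a greenhouse at 20 to 30° C to the 3-leaf stage of barnyard grass; foliage then sprayed with 2,000 l/ha of a water-diluted emulsion of compound, acetone and Tween 80 (1:5:1 by weight). Damage scored visually, 1 to 100% versus untreated control, at 10 and 20 days.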

[5] = tested on: ECHOG (Echinoch crus-galli Beauv. var. caudata Kitagawa, barnyard grass); assay: as above; assay type: in vivo; settings: Echinochloa crus-galli, foliar, 3-leaf stage, read-out: Plant damage (herbicidal activity), visually evaluated, ECHOG; for pest or weed control at 25 g/ha: 0.025 kg/ha; for pest or weed control at 100 g/ha: 0.1 kg/ha; for pest or weed control at 200 g/ha: 0.2 kg/ha
In short: as §4

[6] = tested on: PANDI (Panium dichotomiflorum Michx, fall panicum); assay: as above; assay type: in vivo; settings: Panicum dichotomiflorum, foliar, read-out: Plant damage (herbicidal activity), visually evaluated, PANDI; for pest or weed control at 25 g/ha: 0.025 kg/ha; for pest or weed control at 100 g/ha: 0.1 kg/ha; for pest or weed control at 200 g/ha: 0.2 kg/ha
In short: as §4

[7] = tested on: ZEAMX (Zea mays L., corn); assay: as above; assay type: in vivo; settings: Zea mays, foliar, read-out: Plant damage (herbicidal activity), visually evaluated, ZEAMX; for plant injury at 25 g/ha: 0.025 kg/ha; for plant injury at 100 g/ha: 0.1 kg/ha; for plant injury at 200 g/ha: 0.2 kg/ha
In short: as §4

[8] = tested on: SORBI (Andropogon sorghum, common sorgum); assay: as above; assay type: in vivo; settings: Sorghum bicolor, foliar, read-out: Plant damage (herbicidal activity), visually evaluated, SORBI; for pest or weed control at 25 g/ha: 0.025 kg/ha; for pest or weed control at 100 g/ha: 0.1 kg/ha; for pest or weed control at 200 g/ha: 0.2 kg/ha
In short: as §4

[9] = tested on: DIGSA (Digitaria Sanguinalis (L.) SCOP, large crabgrass); assay: as above; assay type: in vivo; settings: Digitaria sanguinalis, foliar, read-out: Plant damage (herbicidal activity), visually evaluated, DIGSA; for pest or weed control at 25 g/ha: 0.025 kg/ha; for pest or weed control at 100 g/ha: 0.1 kg/ha; for pest or weed control at 200 g/ha: 0.2 kg/ha
In short: as §4

[10] = tested on: ARTHIS (Arthraxon hispidus (Thunb.) Makino, creek grass); assay: as above; assay type: in vivo; settings: Arthraxon hispidus, foliar, read-out: Plant damage (herbicidal activity), visually evaluated, ARTHIS; for pest or weed control at 25 g/ha: 0.025 kg/ha; for pest or weed control at 100 g/ha: 0.1 kg/ha; for pest or weed control at 200 g/ha: 0.2 kg/ha
In short: as §4

Barnyard grass = assay: Weed control test, 4-leaf stage plants (Test Example 1, Table 8); assay type: in vivo, Echinoch crus-galli Beauv. var. caudata Kitagawa
Source text: Seeds of rice, wheat, soy bean, barley, corn, common sorgum, barnyard grass, large crabgrass, creek grass, green foxtail and fall panicum were placed in sandy loam in 600 cm^2 pots and covered with soil. […], 2,000 l/ha of an emulsion obtained by diluting with water a mixture of 1 part by weight of a test compound, 5 parts by weight of acetone and 1 part by weight of an emulsifying agent (Tween 80, Junsei) was applied to the surface of the foliage of the plants. The plant damage at 10 days and 20 days after the foliage treatment was visually evaluated from the level of 1 to 100% by comparison with the untreated control: […]

[11] = tested on: ORYSA (Oryza sativa cv. Dongjin, rice); assay: Weed control test, foliage treatment (Test Example 1, Table 7); settings: in vivo
Rice = assay: Weed control test, 4-leaf stage plants (Test Example 1, Table 8); settings: in vivo
Experimental: Seeds of rice, wheat, soy bean, barley, corn, common sorgum, barnyard grass, large crabgrass, creek grass, green foxtail and fall panicum were placed in sandy loam in 600 cm^2 pots and covered with soil. After keeping the pots in a greenhouse at 20 to 30° C. allowing growth of the plants to the 3-leaf stage of the barnyard grass, 2,000 l/ha of an emulsion obtained by diluting with water a mixture of 1 part by weight of a test compound, 5 parts by weight of acetone and 1 part by weight of an emulsifying agent (Tween 80, Junsei) was applied to the surface of the foliage of the plants. The plant damage at 10 days and 20 days after the foliage treatment was visually evaluated from the level of 1 to 100% by comparison with the untreated control: […]

| Structure (SMILES) | Plant damage (herbicidal activity), visually evaluated, GLXMA [1] [%] | Plant damage (herbicidal activity), visually evaluated, TRZAW [2] [%] | pest or weed control at 25 g/ha [4] [%] | pest or weed control at 100 g/ha [4] [%] | pest or weed control at 200 g/ha [4] [%] | pest or weed control at 25 g/ha [5] [%] | pest or weed control at 100 g/ha [5] [%] | pest or weed control at 200 g/ha [5] [%] | pest or weed control at 25 g/ha [6] [%] | pest or weed control at 100 g/ha [6] [%] | pest or weed control at 200 g/ha [6] [%] | plant injury at 25 g/ha [7] [%] | plant injury at 100 g/ha [7] [%] | plant injury at 200 g/ha [7] [%] | pest or weed control at 25 g/ha [8] [%] | pest or weed control at 100 g/ha [8] [%] | pest or weed control at 200 g/ha [8] [%] | pest or weed control at 25 g/ha [9] [%] | pest or weed control at 100 g/ha [9] [%] | pest or weed control at 200 g/ha [9] [%] | also measured |
| --- | --- | --- | --- | --- | --- | --- | --- | --- | --- | --- | --- | --- | --- | --- | --- | --- | --- | --- | --- | --- | --- |
| COc1ccc2nc(NC(=O)[C@@H](C)Oc3ccc(Oc4nc5ccc(Cl)cc5o4)cc3)sc2c1 [Example 13, (R)-2-[4-(6-chloro-2-benzoxazolyloxy)phenoxy]propionic acid-N-(6-methoxy-2-benzothiazolyl)amide] | 0 | 0 | 50 | 100 | 100 | 70 | 100 | 100 | 20 | 100 | 100 | 40 | 100 | 100 | 30 | 100 | 100 | 75 | 100 | 100 | Harmful effect, 20 days (rice (Nampyung rice)): 10%; Harmful effect, 30 days (rice (Nampyung rice)): 0%; Herbicidal effect (0~100), 20 days, Echinochloa oryzicola (Echinochloa oryzicola): 70%; Herbicidal effect (0~100), 20 days, Echinochloa crus-galli var. crus-galli [3]: 80%; pest or weed control at 25 g/ha [10]: 50%; pest or weed control at 100 g/ha [10]: 100%; pest or weed control at 200 g/ha [10]: 100%; Plant damage (herbicidal activity), visually evaluated, Barnyard grass (Barnyard grass; 0.025 kg/ha): 20%; Plant damage (herbicidal activity), visually evaluated, Barnyard grass (Barnyard grass; 0.05 kg/ha): 50%; Plant damage (herbicidal activity), visually evaluated, Barnyard grass (Barnyard grass; 0.1 kg/ha): 70%; Plant damage (herbicidal activity), visually evaluated, Barnyard grass (Barnyard grass; 0.4 kg/ha): 100% |
| COc1ccc2nc(N(C)C(=O)[C@@H](C)Oc3ccc(Oc4nc5ccc(Cl)cc5o4)cc3)sc2c1 [Example 14, (R)-2-[4-(6-chloro-2-benzoxazolyloxy)phenoxy]propionic acid-N-(6-methoxy-2-benzothiazolyl)-N-methyl amide] | 0 | 0 | 0 | 20 | 50 | 0 | 20 | 70 | 0 | 20 | 70 | 0 | 10 | 90 | 10 | 50 | 90 | 0 | 20 | 70 | Plant damage (herbicidal activity), visually evaluated, ORYSA [11]: 0%; Plant damage (herbicidal activity), visually evaluated, Rice (Rice): 0%; pest or weed control at 25 g/ha [10]: 0%; pest or weed control at 100 g/ha [10]: 20%; pest or weed control at 200 g/ha [10]: 50%; Plant damage (herbicidal activity), visually evaluated, Barnyard grass (Barnyard grass; 0.025 kg/ha): 0%; Plant damage (herbicidal activity), visually evaluated, Barnyard grass (Barnyard grass; 0.05 kg/ha): 0%; Plant damage (herbicidal activity), visually evaluated, Barnyard grass (Barnyard grass; 0.1 kg/ha): 10%; Plant damage (herbicidal activity), visually evaluated, Barnyard grass (Barnyard grass; 0.4 kg/ha): 50% |
| C[C@@H](Oc1ccc(Oc2nc3ccc(Cl)cc3o2)cc1)C(=O)Nc1nc2ccccc2s1 [Example 5, (R)-2-[4-(6-chloro-2-benzoxazolyloxy)phenoxy]propionic acid-N-(2-benzothiazolyl)amide] | 0 | 0 | 80 | 100 | 100 | 95 | 100 | 100 | 90 | 100 | 100 | 60 | 100 | 100 | 25 | 100 | 100 | 95 | 100 | 100 | Harmful effect, 20 days (rice (Nampyung rice)): 0%; Harmful effect, 30 days (rice (Nampyung rice)): 0%; Plant damage (herbicidal activity), visually evaluated, Rice (Rice): 0%; Herbicidal effect (0~100), 20 days, Echinochloa oryzicola (Echinochloa oryzicola): 100%; Herbicidal effect (0~100), 20 days, Echinochloa crus-galli var. crus-galli [3]: 100%; pest or weed control at 25 g/ha [10]: 40%; pest or weed control at 100 g/ha [10]: 100%; pest or weed control at 200 g/ha [10]: 100%; Plant damage (herbicidal activity), visually evaluated, Barnyard grass (Barnyard grass; 0.025 kg/ha): 70%; Plant damage (herbicidal activity), visually evaluated, Barnyard grass (Barnyard grass; 0.05 kg/ha): 95%; Plant damage (herbicidal activity), visually evaluated, Barnyard grass (Barnyard grass; 0.1 kg/ha): 100%; Plant damage (herbicidal activity), visually evaluated, Barnyard grass (Barnyard grass; 0.4 kg/ha): 100% |
